The test system of series [1] is MV522 (human lung carcinoma cell line). As to the kind of experiment: 2 hour exposure, [3H]-thymidine incorporation. It is filed as cell-based. As to the method: (§1) To assess cytotoxic effects, various concentrations of illudins were added to cultures of MV522 (human lung carcinoma cell line) and 8392 (B-cell leukemia/lymphoma) cells for 48 hours, then cell growth/viability was determined by trypan blue exclusion. As an alternative to 48 hour continuous exposure studies, cells were plated in liquid culture in 96 well plates, exposed to various concentrations of illudins for 2 hours, pulsed with [^3H]-thymidine for one to two hours and harvested onto glass filters. The filter papers were added to vials containing scintillation fluid and residual radioactivity determined in a beta (scintillation) counter.
In general terms: Incorporation of labelled thymidine or its analogues reports DNA synthesis.

The test system of series [2] is 8392 (B-cell leukemia/lymphoma) cells. Briefly: 48 hour continuous exposure, trypan blue exclusion. To be noted: 48 hour exposure. It is filed as cell-based. As to the method:
as §1

In series [3] the test system is MV522 (human lung carcinoma cell line). As to the kind of experiment: 48 hour continuous exposure, trypan blue exclusion. It counts as cell-based. The following applies: 48 hour exposure. As to the method:
as §1

The subject of series [4] is 8392 (B-cell leukemia/lymphoma) cells. Briefly: 2 hour exposure, [3H]-thymidine incorporation. It counts as cell-based. As to the method:
as §1

The test system of series [5] is MV522 lung carcinoma line. The following applies: for efficacy in MV522 xenograft (in words): summary of the in vivo table. The text has this:
Several analogs were chosen for in vivo studies. […] Drug therapy was started 10 days after inoculation on a daily basis via IP route for 5 consecutive days. The animals were monitored for 3 weeks after start of therapy.
BALB/c nu/nu 4-week old female mice weighing 18-22 g were obtained from Simonsen, Inc. (Gilroy, Calif.) and maintained in the athymic mouse colony of the University of California (San Diego, Calif.) under pathogen free conditions using HEPA filter hoods. Animals were provided with sterilized food and water ad libitum in groups of 5 in plastic cages vented with polyester fiber filter covers. Clean, sterilized gowns, glove, face masks, and shoe and hood covers were worn by all personnel handling the animals. All studies were conducted in accordance with guidelines of the NIH “Guide for Care and Use of Animals” and approved by the University Institutional Animal Care and Use Committee (Protocol 3-006-2)
The MV522 lung carcinoma line used for xenograft studies was derived as described by Kelner et al. (Anticancer Res., 15: 867-872; 873-878 (1995)) and maintained in antibiotic-free RPMI 1640 (Mediatech, Herndon, Va.) supplemented with 10% fetal bovine serum and 2 mM glutamine in 37° C. humidified carbon dioxide incubator.
Each animal was earmarked and followed individually throughout the experiments. Mice received s.c. injections of the parental cell line MV522 using 10 million cells/inoculation over the shoulder. Ten days after s.c. implantation of the MV522 cells, when s.c. tumors were approximately 3×3 mm in size, animals received the desired drug and dosage. The effect of the drug on life span was calculated from median survival.
Although MV522 cells kill mice by metastases, primary s.c. tumor growth over the shoulder was monitored starting on the first day of treatment and at weekly intervals thereafter. Tumor size was measured in two perpendicular diameters. Tumor weights were estimated according to the formula w=(width)^2×length/2). Relative weights (RW) were calculated to standardized variability in tumor size among test groups at initiation of treatment using the formula RW=Wt/wi, where Wi is the tumor weight for a given animal at beginning of drug treatment and Wt is tumor weight at a subsequent time. Animals were necropsied, and organs were examined for evidence of metastases.
Comparison of survival curves between groups of animals was by the method of Kaplan and Meir. For comparison of relative tumor weights between multiple groups of animals, ordinary ANOVA followed by Turkey-Kramer multiple Comparison post ANOVA analysis was preformed (Kelner et al. (Aniticancer Res., 15: 867-872; 873-878 (1995)). Probability values (p) less than 0.05 were considered statistically significant.

For series [6], the system named is solid tumor systems. The following applies: cited from earlier work.
Series [7] has as its system Dunning leukemia. To be noted: rats with Dunning leukemia; cited from earlier work.

Broadly, the IC50 is the concentration that gives 50% inhibition. For the compound `CC1=C(CC2CC(C=O)CC(C=O)C2O)C2=C(C)C3(CC3)C(C)(O)C(=O)C2=C1` (mixture of isomers) [Compound 13], in series [1], the midpoint of inhibition, the IC50, lay at 5.12 ± 0.65 µM.

As to `CC(=O)OCOCC1=C(C)C=C2C(=O)C(C)(O)C3(CC3)C(C)=C21` (stereo not shown) [Compound 8], the IC50 in series [1] turned out to be 0.87 ± 0.09 µM; in series [2] it was 15.1 ± 2.2 µM; in series [3] it was 0.63 ± 0.08 µM.

For the compound `CC1=C(CCCO)C2=C(C)C3(CC3)C(C)(O)C(=O)C2=C1` (stereo not shown) [Compound 9], the IC50 in series [4] worked out at 47.1 ± 11 µM; in series [2], 15.1 ± 2.2 µM.

Take `CC1=C(CCC=O)C2=C(C)C3(CC3)C(C)(O)C(=O)C2=C1` (stereo not shown) [Compound 10]: the IC50 is 29.4 ± 1.6 µM in series [4] and 14.5 ± 1.65 µM in series [2].

Take `CC1=C(C=O)C2=C(C)C3(CC3)C(C)(O)C(=O)C2=C1` (stereo not shown) [Compound 11]: the concentration for half-maximal inhibition (IC50) in series [4] is above 100 µM; in series [1], 4.9 ± 0.9 µM; in series [2], 40.4 ± 6.7 µM.

With `CC1=C2C(=CC3(C)COCOC23)C(=O)C(C)(O)C12CC2` (stereo not shown) [Compound 14], the IC50 was determined as 9.65 ± 1.2 µM in series [4] and 0.115 ± 0.03 µM in series [1].

For `CCOCC1=C(C)C=C2C(=O)C(C)(O)C3(CC3)C(C)=C21` (stereo not shown) [Compound 16], the “efficacy in MV522 xenograft (in words)” value in series [5] is on record as “effective”.

Consider `COC(C)(C)OCC1=C(C)C=C2C(=O)C(C)(O)C3(CC3)C(C)=C21` (stereo not shown) [Compound 21], for which the half-maximal inhibitory concentration (IC50) in series [4] stood at 34.3 ± 9.4 µM; in series [3], 0.93 ± 0.25 µM. For the same compound, the “efficacy in MV522 xenograft (in words)” value in series [5] is “more efficacious than HMAF”.

Turning to `CC1=C(COCCO)C2=C(C)C3(CC3)C(C)(O)C(=O)C2=C1` (stereo not shown) [Compound 22], the IC50 in series [4] was determined as 31.7 ± 1.4 µM; in series [3] it was 0.68 ± 0.18 µM.

As to `CC1=C(CSc2ccc(O)cc2)C2=C(C)C3(CC3)C(C)(O)C(=O)C2=C1` (stereo not shown) [Compound 23], the values for the IC50 in series [4], in series [1] and in series [3] were 138 ± 13 µM, 2.92 ± 1.14 µM and 2.75 ± 0.51 µM, respectively.

In series [4], `CC1=C(CSCc2ccccc2)C2=C(C)C3(CC3)C(C)(O)C(=O)C2=C1` (stereo not shown) [Compound 24] had an IC50 of 12.8 ± 2.14 µM.

`COC(=O)CSCC1=C(C)C=C2C(=O)C(C)(O)C3(CC3)C(C)=C21` (stereo not shown) [Compound 25]: the IC50 in series [4] is above 25 µM.

Turning to `CC1=C(CSCC(O)CO)C2=C(C)C3(CC3)C(C)(O)C(=O)C2=C1` (stereo not shown) [Compound 32], the figures for the IC50 in series [4] and in series [1] were above 50 µM and 0.595 ± 0.185 µM, respectively. For the same compound, the “efficacy in MV522 xenograft (in words)” value in series [5] is given as “effective”.

Turning to `CC1=C2C=CC=C2C(=O)C2(OCCO2)C12CC2` [Compound 33], the IC50 in series [4] was 29.9 ± 3.3 µM; in series [1], above 4 µM; in series [3], 4.6 ± 0.2 µM. Moreover, the “efficacy in MV522 xenograft (in words)” value in series [5] was “effective”.

Consider `CC1=C2C(=CC(C)(C)[C@@H]2O)C(=O)[C@](C)(O)C12CC2` [Illudin M], for which, in series [6], the therapeutic index result is “low”. In addition, the life span entry in series [7] is on record as “significantly increased”.

For `CO[C@@]12[C@H](COC(N)=O)C3=C(C(=O)C(C)=C(N)C3=O)N1C[C@@H]1N[C@@H]12` [Mitomycin C, reference compound], the “day before which all animals succumbed” value in series [5] (mouse, in vivo) is below 31 days.

(Values after US7713939B2, “Illudin analogs useful as antitumor agents” (priority 1996, dated 2010).)
